Experimental data taken from US8114453B2, “Synergistically heat stable oil media having eicosa pentanoic acid (EPA) and docosa hexaenoic acid (DHA)” (Recon Oil Industries Private Limited, priority 2005, dated 2012).

What was measured:
[1] = clinical trial, reported in background; cited from earlier work
[2] = Fatty acid composition of oils before and after heating (air incorporated by stirring) by Gas Liquid Chromatography; type: physicochemical; details: from the fish oil source, heated with air incorporated
Source text: The heat stability of the highly unsaturated and easily oxidisable EPA/DHA in the oil blend of the invention, EPA/DHA from available sources of enriched fish oil was blended with groundnut oil in various proportions and the stability of the formulations tested is importantly to further confirm the unexpected and synergistic heat stability achieved by the oil formulation of the invention incorporating the EPA/DHA, oil blends with varying amount of active benefit agent EPA/DHA heated from ambient to upto 220 deg.C were tested. To maximize the process of deterioration, apart from heating at 180 deg.C, 200 deg.C and 220 deg. C., air was incorporated during heating by using a magnetic stirrer.

Structure (SMILES) | Effect on triglyceride levels [1] | Heat stability of the fatty acid [2]
CC/C=C\C/C=C\C/C=C\CCCCCCCC(=O)O [ALNA, Alpha linolenic acid] | not effective to reduce triglyceride levels | 
CC/C=C\C/C=C\C/C=C\C/C=C\C/C=C\C/C=C\CCC(=O)O [DHA, Docosa Hexaenoic Acid] |  | heat stable even at temperatures of up to 220 deg. C.
CC/C=C\C/C=C\C/C=C\C/C=C\C/C=C\CCCC(=O)O [EPA, Eicosa Pentaenoic Acid] |  | heat stable even at temperatures of up to 220 deg. C.
